Laboratory results reported in patent US20060100140A1, “Combination of a) n-{5-[4-(4-methyl-piperazino-methyl)-benzoylamido]2-methylphenyl}-4- (3-pyridyl)-2-pyrimidine-amine and b) a histone deacetylase inhibitor for the treatment of leukemia” (priority 2002, published 2006).

What was measured:
[1] = system: K562 cells; assay: Apoptosis by morphological analysis of Wright Giemsa-stained cytospin preparations; format: cell-based, human; settings: K562; for effect of caspase inhibitor on Compound I/SAHA-induced apoptosis: Compound I + SAHA with 25 μM inhibitor
Method: (§1) Experimental Format: Logarithmically growing cells are placed in sterile plastic T-flasks (Corning, Corning, N.Y.) to which are added the designated drugs and the flasks replaced in the incubator for intervals. At the end of the incubation period, cells are transferred to sterile centrifuge tubes, pelleted by centrifugation at 400×g for 10 min at room temperature, and prepared for analysis as described below.
(§2) Assessment of Apoptosis: After drug exposures, cytocentrifuge preparations are stained with Wright-Giemsa and viewed by light microscopy to evaluate the extent of apoptosis (i.e., cell shrinkage, nuclear condensation, formation of apoptotic bodies, etc.) as described previously (Yu et al., Nat. Rev. Cancer 1:294-202). For these studies, the percentage of apoptotic cells is determined by evaluating ≧500 cells/condition in triplicate. To confirm the results of morphological analysis, Annexin V/PI staining is used. Annexin V/PI (BD PharMingen, San Diego, Calif.) analysis of cell death is carried out as per the manufacturer's instructions. In studies involving TNF and TNF soluble receptor, both compound are combined and maintained at room temperature 20 min prior to use. For these experiments 1-2×10^5 cells per condition are harvested. Analysis is carried out using a Becton-Dickinson FACScan cytofluorometer (Mansfield, Mass.). To further confirm the morphology results, TUNEL staining is used. For TUNEL staining, cytocentrifuge preparations are obtained and fixed with 4% formaldehyde. The slides are treated with acetic acid/ethanol (1:2), stained with terminal transferase reaction mixture containing 1× terminal transferase reaction buffer (0.25 units/μl terminal transferase, 2.5 mM CoCl2, and 2 pmol fluorescein-12-dUTM; Boehringer Mannheim, Indianapolis, Ind.), and visualized using fluorescence microscopy.

[2] = system: LAMA 84 cells; assay: Apoptosis by cytospin slides; format: cell-based, human; settings: Table 6; LAMA 84; 24 hr; sodium butyrate (SB; 1 or 2 mM); Compound I concentration not given
Method: as §1, §2

For `COC(=O)CC(NC(=O)OC(C)(C)C)C(=O)CF` (stereo not shown) [BOC-fmk], the “effect of caspase inhibitor on Compound I/SAHA-induced apoptosis” value [1] was “markedly inhibited apoptosis”.

`CCCC(=O)[O-].[Na+]` [SB, sodium butyrate] was tested, and the “Compound I + SB % of apoptotic cells” value ([1]; Table 6, 24 hr, sodium butyrate (SB; 1 or 2 mM), Compound I concentration not given) was 5.1 ± 2.2% and the “Compound I + SB % of apoptotic cells” value [2] was 6.4 ± 2.8%.

With IETD-fmk the “effect of caspase inhibitor on Compound I/SAHA-induced apoptosis” value [1] was “minimally effective”.
